# Data reported in patent US20210221867A1, “Compounds Capable of Binding to Melanocortin 4 Receptor” (Novo Nordisk A/S, priority 2018, published 2021).
# Starred links: 1 amine or outer side, 2 acyl side, 3 side chain; linkers in the order of their positions; H or OH if unused. Positions of bridges follow the written chain, without caps; N, C: chain ends. Non-standard residues stand in square brackets, D forms with d. Residues, ends and D or L forms follow the SMILES beside them. dPhe(4-Cl) = N[C@H](Cc1ccc(Cl)cc1)C(=O)O; X1 = NC(N)NCCC[C@@H](N[*:1])C(=O)[*:2]; X3 = NCNCCC[C@@H](N[*:1])C(=O)[*:2]; X2 = NCNCCC[C@H](N[*:1])C(=O)[*:2]; Nle = CCCC[C@H](N)C(=O)O
# How the values were obtained:
# [1] = target: T1, human MC1R (Homo sapiens, UniProt Q01726); assay: Functional human melanocortin receptor 1 assay (cAMP, HTRF); assay type: cell-based; conditions: cAMP induction, BHK cells expressing the human MC1 receptor, 30 min, 25° C.
# T1 construct: expressed in transfected cells
# Method: (§1) In order to assess the potency of the compounds on human MC1R and human MC4R cAMP signalling was measured.
# (§2) cAMP induction was measured by c-AMPdynamic2 assay, HTRF 62AM4PEC system from CisBio for the human MC1R and human MC4R according to the protocol provided by the vendor. BHK cells expressing the human MC1 or MC4 receptor were generated by stable transfection with expression vectors encoding the cDNA of either MC1R or MC4R. In details; 25 μl compound—or standard solution were added in the respective wells.
# (§3) Compound was reconstituted in buffer (DMEM w/o phenol red, 10 mM Hepes, lx Glutamine, 0.1% OV-albumin1, 1 mM IBMX) and serially diluted starting at 2 μM, 10-fold seven times. Dilutions were carried out in the same aforementioned buffer to the desired working concentration ranges (2× higher than the final concentration). 25 μl cell solution was then added and allowed to incubate for 30 min while lightly shaking, at 25° C. […] The provided components for the assay were reconstituted according to the CisBio assay protocol “3.1 supplied reagents and preparation procedure” in MilliQ purification system H2O and diluted 1:20 in lysis buffer. 25 μl cAMP-d2 and 25 μl Cryptate conjugate were added to all wells. Plates were centrifuged at 1500 rpm for 30 sec and incubated for 1 h, lightly shaking, at 25° C. in a hotel stacker. The plates were read on Mithras LB 940 provided by Berthold Technologies
# (§4) The data were analysed by non-linear regression analysis of binding curves, using the Windows™ program GraphPad™ Prism (GraphPad Software, USA). EC50 is a measure of the potency of a given compound and is defined herein as the half maximal effective concentration of the compound which induces a response (cAMP induction) halfway between the baseline and maximum response value after a fixed reaction time. Data listed as >, indicate that the highest concentration tested had no effect, where “no effect” is defined as the highest compound concentration with agonistic effect 5% of maximal response of the reference compound NDP-alpha-MSH. […]
# [2] = target: T2, human MC4R (Homo sapiens, UniProt P32245); assay: MC4 receptor binding assay (SPA, 125I-NDP-α-MSH); conditions: displacement of 125I-NDP-α-MSH, membranes from BHK cells stably expressing the human MC4 receptor, read-out: MC4R binding IC50
# T2 construct: expressed in transfected cells
# Method: In Vitro ^125I-NDP-α-MSH Binding to Recombinant BHK Cells Stably Expressing the Human MC4 Receptor (SPA Binding Assay).
# In order to assess the binding affinity of the selected compounds for the human MC4R, competitive binding assays were performed with radiolabelled NDP-alpha MSH (^125I-NDP-α-MSH) and membranes from BHK cells stably expressing the human MC4 receptor.
# (§5) The BHK cell membranes are prepared from frozen or fresh cells that are homogenised in ice cold buffer (20 mM HEPES, 5 mM MgCl2, 1 mg/ml Bacitracin, pH 7.1 and one Complete™ Protease Inhibitor Cocktail Tablet per 25 ml (Catalogue number 05 056 489 001 from Roche-applied-science)) and centrifuged at 25000 g at 4° C. for 10 minutes. The supernatant is discarded, and the pellets are re-suspended in the buffer, and then homogenised and centrifuged two more times. The pellets are pooled, and the final pellet is re-suspended in buffer, aliquoted and subsequently stored at −80° C.
# (§6) The SPA Binding assay was performed in 96-well white opaque plates. Each well contained: 0.5 mg PVT-WGA SPA beads, MC4 receptor expressing membrane diluted to give approximately 10% specific tracer binding, 50.000 dpm ^125I-NDP-α-MSH and relevant dilutions of test compound. The final volume in each well was 200 μl. Assay buffer was 25 mM HEPES, pH 7.0, containing 1.5 mM CaCl2, 1 mM MgSO4, 0.21% (w/v) ovalbumin, 1 mM 1,10-Phenanthroline and one Complete™ Protease Inhibitor Cocktail Tablet per 100 ml. Plates were incubated overnight (22-24 hours) at room temperature before counting for 2 minutes per well, using a TopCount NXT scintillation counter. Displacement of radio ligand is measured as reduction in light emission from SPA beads, and IC50 values are calculated by nonlinear regression analysis of sigmoidal dose-response curves in GraphPad Prism (GraphPad Software, La Jolla, Calif., USA).
# [3] = target: T2, human MC4R; assay: Functional human melanocortin receptor 4 assay (cAMP, HTRF); assay type: cell-based; conditions: cAMP induction, BHK cells expressing the human MC4 receptor, 30 min, 25° C.
# Method: as §1, §2, §3, §4
# [4] = target: T1, human MC1R; assay: MC1 receptor binding assay (SPA, 125I-NDP-α-MSH); conditions: displacement of 125I-NDP-α-MSH, membranes from BHK cells stably expressing the human MC1 receptor, read-out: MC1R binding IC50
# Method: In Vitro ^125I-NDP-α-MSH Binding to Recombinant BHK Cells Stably Expressing the Human MC1 Receptor (SPA Binding Assay).
# In order to assess the binding affinity of the selected compounds for the human MC1R, competitive binding assays were performed with radiolabelled NDP-alpha MSH (^125I-NDP-α-MSH) and membranes from BHK cells stably expressing the human MC1 receptor.
# as §5
# as §6, with “MC1” for “MC4”
# T2 sequence (P32245 whole entry): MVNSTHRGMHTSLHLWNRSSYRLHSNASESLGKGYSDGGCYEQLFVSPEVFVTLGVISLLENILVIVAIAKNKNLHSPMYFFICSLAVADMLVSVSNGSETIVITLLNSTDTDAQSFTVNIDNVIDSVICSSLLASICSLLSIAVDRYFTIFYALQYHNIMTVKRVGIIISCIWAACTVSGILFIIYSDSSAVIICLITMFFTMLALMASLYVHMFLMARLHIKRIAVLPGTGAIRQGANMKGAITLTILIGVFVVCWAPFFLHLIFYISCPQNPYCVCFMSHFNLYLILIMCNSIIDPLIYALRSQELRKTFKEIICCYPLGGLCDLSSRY
# T1 sequence (Q01726 whole entry): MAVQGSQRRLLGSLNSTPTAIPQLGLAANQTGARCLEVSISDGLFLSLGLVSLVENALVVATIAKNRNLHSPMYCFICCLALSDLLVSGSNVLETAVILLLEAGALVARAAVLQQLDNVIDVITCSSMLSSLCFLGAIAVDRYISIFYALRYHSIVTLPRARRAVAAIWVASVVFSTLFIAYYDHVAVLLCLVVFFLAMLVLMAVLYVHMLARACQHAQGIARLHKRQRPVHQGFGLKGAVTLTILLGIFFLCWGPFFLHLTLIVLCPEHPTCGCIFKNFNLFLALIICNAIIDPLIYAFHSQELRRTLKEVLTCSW
Compound,EC50 [1],IC50 [2],EC50 [3],IC50 [4]
"CCCC[C@H](NC(=O)[C@H](CCC(=O)O)NC(=O)[C@@H](CCCNC(=N)N)NC(=O)[C@@H]1CCCN1C(=O)[C@@H]1CCCN1C(=O)[C@@H]1CSSC[C@H](NC(=O)[C@H](CCCNC(=N)N)NC(C)=O)C(=O)N2CCC[C@H]2C(=O)N[C@@H](Cc2c[nH]cn2)C(=O)N[C@H](Cc2ccccc2)C(=O)N[C@@H](Cc2c[nH]cn2)C(=O)N[C@@H](Cc2c[nH]c3ccccc23)C(=O)N1)C(=O)N[C@H](CCCNC(N)N)C(=O)N[C@H](CCCNC(=N)N)C(N)=O [Chem. 5, Ac-Arg-c[Cys-Pro-His-D- Phe-His-Trp-Cys]-Pro- Pro-D-Arg-Glu-Nle-D- Arg-D-Arg-NH2] (Ac-RCPH[dF]HWCPP[dR]E[Nle][X1][dR]-NH2; disulfide 2-8)",172 nM,–,–,–
"CCCC[C@H](NC(=O)[C@H](CCC(=O)O)NC(=O)[C@@H](CCCNC(=N)N)NC(=O)[C@@H]1CCCN1C(=O)[C@@H]1CCCN1C(=O)[C@@H]1CSSC[C@H](NC(=O)[C@H](CCCNC(=N)N)NC(C)=O)C(=O)N2CCC[C@H]2C(=O)N[C@@H](Cc2c[nH]cn2)C(=O)N[C@H](Cc2ccccc2)C(=O)N[C@@H](Cc2c[nH]cn2)C(=O)N[C@@H](Cc2c[nH]c3ccccc23)C(=O)N1)C(=O)N[C@H](CCCNC(N)N)C(=O)N[C@H](CCCNC(=N)N)C(N)=O [Chem. 6, Ac-D-Arg-c[Cys-Pro-His- D-Phe-His-Trp-Cys]-Pro- Pro-D-Arg-Glu-Nle-D- Arg-D-Arg-NH2] (Ac-RCPH[dF]HWCPP[dR]E[Nle][X1][dR]-NH2; disulfide 2-8)",126 nM,0.35 nM,0.32 nM,44.1 nM
"CCCC[C@H](NC(=O)[C@H](CCC(=O)O)NC(=O)[C@@H](CCCNC(=N)N)NC(=O)[C@@H]1CCCN1C(=O)[C@@H]1CCCN1C(=O)[C@@H]1CSSC[C@H](NC(C)=O)C(=O)N2CCC[C@H]2C(=O)N[C@@H](Cc2c[nH]cn2)C(=O)N[C@H](Cc2ccc(Cl)cc2)C(=O)N[C@@H](Cc2c[nH]cn2)C(=O)N[C@@H](Cc2c[nH]c3ccccc23)C(=O)N1)C(=O)N[C@H](CCCNCN)C(=O)N[C@H](CCCNC(=N)N)C(N)=O [Chem. 10, Ac-c[Cys-Pro-His-D-Cl- Phe-His-Trp-Cys]-Pro- Pro-D-Arg-Glu-Nle-D- Arg-D-Arg-NH2] (Ac-CPH[dPhe(4-Cl)]HWCPP[dR]E[Nle][X3][dR]-NH2; disulfide 1-7)",–,–,–,172 nM
"CCCC[C@H](NC(=O)[C@H](CCC(=O)O)NC(=O)[C@@H](CCCNC(=N)N)NC(=O)[C@@H]1CCCN1C(=O)[C@@H]1CCCN1C(=O)[C@@H]1CSSC[C@H](NC(C)=O)C(=O)N2CCC[C@H]2C(=O)N[C@@H](Cc2c[nH]cn2)C(=O)N[C@H](Cc2ccccc2)C(=O)N[C@@H](Cc2c[nH]cn2)C(=O)N[C@@H](Cc2c[nH]c3ccccc23)C(=O)N1)C(=O)N[C@@H](CCCNCN)C(=O)N[C@H](CCCNC(=N)N)C(N)=O [Chem. 15, Ac-c[Cys-Pro-His-D-Phe- His-Trp-Cys]-Pro-D- Arg-Glu-Nle-Arg-D-Arg- NH2] (Ac-CPH[dF]HWCPP[dR]E[Nle][X2][dR]-NH2; disulfide 1-7)",–,0.88 nM,–,–

# More lines, now with the values ahead:
EC50 [1],IC50 [2],EC50 [3],IC50 [4],Compound
–,0.27 nM,0.16 nM,138 nM,"CCCC[C@H](NC(=O)[C@H](CCC(=O)O)NC(=O)[C@@H](CCCNC(=N)N)NC(=O)[C@@H]1CCCN1C(=O)[C@@H]1CCCN1C(=O)[C@@H]1CSSC[C@H](NC(C)=O)C(=O)N2CCC[C@H]2C(=O)N[C@@H](Cc2c[nH]cn2)C(=O)N[C@H](Cc2ccccc2)C(=O)N[C@@H](Cc2c[nH]cn2)C(=O)N[C@@H](Cc2c[nH]c3ccccc23)C(=O)N1)C(=O)N[C@H](CCCNC(=N)N)C(=O)N[C@H](CCCNC(=N)N)C(=O)N[C@H](CCCNC(=N)N)C(N)=O [Chem. 16, Ac-c[Cys-Pro-His-D-Phe- His-Trp-Cys]-Pro-Pro-D- Arg-Glu-Nle-D-Arg-D- Arg-D-Arg-NH2] (Ac-CPH[dF]HWCPP[dR]E[Nle][dR][dR][dR]-NH2; disulfide 1-7)"
179 nM,0.39 nM,0.19 nM,69 nM,"CC(=O)N[C@H](CCCNC(=N)N)C(=O)N[C@H]1CSSC[C@@H](C(=O)N2CCC[C@H]2C(=O)N2CCC[C@H]2C(=O)N[C@H](CCCNC(=N)N)C(=O)N[C@H](CCCNC(=N)N)C(N)=O)NC(=O)[C@H](Cc2c[nH]c3ccccc23)NC(=O)[C@H](Cc2c[nH]cn2)NC(=O)[C@@H](Cc2ccccc2)NC(=O)[C@H](Cc2c[nH]cn2)NC(=O)[C@@H]2CCCN2C1=O [Chem. 18, Ac-D-Arg-c[Cys-Pro-His- D-Phe-His-Trp-Cys]-Pro- Pro-D-Arg-D-Arg-NH2] (Ac-[dR]CPH[dF]HWCPP[dR][dR]-NH2; disulfide 2-8)"
